According to patent publication US8741917B2, “Benzo [C] phenanthridines as antimicrobial agents” (Rutgers, The State University of New Jersey, priority 2009, dated 2014):
Like-named read-outs stand apart in the source and are kept apart here.

What was measured:
MRSA = assay: Planktonic antibacterial broth microdilution assay; conditions: Staphylococcus aureus
[1] = tested on: Mycobacterium tuberculosis; assay: Planktonic antibacterial broth microdilution assay; format: cell-based; conditions: 24 hours continuous drug exposure
Bacillus subtilis FtsZ [2] = biological target: T1, Bacillus subtilis FtsZ (Bacillus subtilis, UniProt P17865); assay: 90°-angle light scattering assay of FtsZ polymerization; format: biochemical; conditions: compound 40 μM; for Maximal Light Scattering: readout of extent of polymerization, no compound: 3.40; for Time to Reach Half-Maximal Light Scattering: readout of rate of polymerization, no compound: 91.6
T1 sequence (P17865 whole entry): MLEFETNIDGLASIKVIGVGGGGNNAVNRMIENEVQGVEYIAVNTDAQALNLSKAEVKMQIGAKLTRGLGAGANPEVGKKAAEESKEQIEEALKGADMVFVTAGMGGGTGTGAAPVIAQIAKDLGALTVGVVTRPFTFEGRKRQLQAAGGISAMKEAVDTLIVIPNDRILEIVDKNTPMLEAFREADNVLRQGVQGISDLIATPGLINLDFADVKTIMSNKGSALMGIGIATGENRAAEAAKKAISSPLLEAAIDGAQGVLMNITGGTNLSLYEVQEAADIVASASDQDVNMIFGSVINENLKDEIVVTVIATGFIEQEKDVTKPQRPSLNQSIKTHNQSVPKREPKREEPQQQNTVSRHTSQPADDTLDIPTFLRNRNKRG
Protocol: B[c]P inhibition of FtsZ polymerization can be tested using a 90°-angle light scattering assay for monitoring drug impact on FtsZ polymerization. This assay is premised on the increased light scattering properties of polymeric FtsZ relative to the monomeric form of the protein. To this end, the light scattering at 600 nm of 5 μM FtsZ is continuously monitored under polymerization conditions in the absence or presence of a B[c]P compound at concentrations ranging from 40 to 80 μM.
Polymerization is initiated by addition of 0.5 mM GTP. The rate and extent of FtsZ polymerization can be quantified by analyzing the light scattering profiles to derive maximal light scattering values (which provide a readout of the extent of polymerization) as well as the times required to reach half-maximal light scattering values (which provide a readout of the rate of polymerization).

Enterococcus faecalis = assay: Planktonic antibacterial broth microdilution assay; format: cell-based; conditions: 24 hours continuous drug exposure
Staphylococcus aureus = assay: Planktonic antibacterial broth microdilution assay; format: cell-based; conditions: 24 hours continuous drug exposure
Bacillus subtilis FtsZ [3] = biological target: T1, Bacillus subtilis FtsZ; assay: Fluorescence-based competition binding assay (displacement of BODIPY-GTPγS from FtsZ); conditions: FIG. 8; reduction reflects binding to FtsZ and release of BODIPY-GTPγS
Description: B[c]P binding to FtsZ can be tested using a fluorescence-based competition binding assay using purified FtsZ and a commercially available GTPγS analog where the nucleotide is covalently conjugated via its sulfur atom to the fluorescent dye BODIPY (DIPYrromethene BOron difluoride). Upon binding to FtsZ, BODIPY-GTPγS undergoes a dramatic increase in fluorescence emission intensity (I) at 510 nm. This binding-induced change in BODIPY-GTPγS fluorescence provides the dissociation constant (Kd-GTP) of the nucleotide for the protein through analysis of fluorescence titration profiles with the following formalism, which is predicated on a one-to-one binding stoichiometry:
[formula] I0 and I are the fluorescence emission intensities of BODIPY-GTPγS in the absence and presence of a given FtsZ concentration, respectively, I∞ is the fluorescence emission intensity of BODIPY-GTPγS in the presence of an infinite FtsZ concentration, and [GTP]tot and [FtsZ]tot are the total concentrations of BODIPY-GTPγS and FtsZ, respectively. […]
I0 and I are the fluorescence emission intensities of the FtsZ-BODIPY-GTPγS complex in the absence and presence of a given compound concentration, respectively, I∞ is the fluorescence emission intensity of the FtsZ-BODIPY-GTPγS complex in the presence of infinite compound concentration, [Compd]tot is the total compound concentration, and p is the Hill slope. […]

Bacillus subtilis = assay: Planktonic antibacterial broth microdilution assay; format: cell-based; conditions: 24 hours continuous drug exposure

SMILES	MIC (MRSA; read-out: MIC vs. MRSA)	other results
COc1cc2ccc3c4ccc(OC)c(OC)c4c[n+](C)c3c2cc1OC [Comparative Example 2, reference compound]	64 µg/mL	
COc1ccc2c(c1OC)C(N)N(C)c1c-2ccc2c(-c3ccc(-c4ccccc4)cc3)c(OC)c(OC)cc12 (stereo not drawn) [Example 24]	< 16 µg/mL	
COc1cc2c(ccc3c4ccc(OC)c(OC)c4c[n+](C)c23)c(-c2ccc(N(C)C)cc2)c1OC [Example 16]	< 16 µg/mL	
COc1cc2c(ccc3c4ccc5c(c4c[n+](C)c23)OCO5)c(-c2ccc(-c3ccccc3)cc2)c1OC [Example 3, 8-Biphenyl-4-yl-9,10-dimethoxy-12-methyl-1,3-dioxa-12-azoniacyclopenta[a]chrysene chloride]	< 16 µg/mL	MIC [1]: 4 µg/mL; MIC (MRSA; 24 h, read-out: MRSA MIC): 8 µg/mL; Maximal Light Scattering (Bacillus subtilis FtsZ [2]): 1.76 a.u.; Time to Reach Half-Maximal Light Scattering (Bacillus subtilis FtsZ [2]): 600.5 s; MIC (Enterococcus faecalis): 16 µg/mL; MIC (Staphylococcus aureus): 2 µg/mL; fluorescence of FtsZ-bound BODIPY-GTPγS upon addition of compound (Bacillus subtilis FtsZ [3]): decreases; MIC (Bacillus subtilis): 2 µg/mL
COc1cc2c(ccc3c4ccc(OC)c(OC)c4c[n+](C)c23)c(-c2ccc(CCN3CCOCC3)cc2)c1OC [Example 19]	< 16 µg/mL	
COc1cc(-c2c(OC)c(OC)cc3c2ccc2c4ccc(OC)c(OC)c4c[n+](C)c32)cc(OC)c1OC [Example 15]	< 16 µg/mL	
COc1cc2c(ccc3c4ccc(OC)c(OC)c4c[n+](C)c23)c(C2=CCCCC2)c1OC [Example 9]	< 16 µg/mL	
COc1cc2c(ccc3c4ccc(OC)c(OC)c4c[n+](C)c23)c(-c2ccc(-c3ccccc3)cc2)c1OC [Example 7]	< 16 µg/mL	
COc1cc2c(ccc3c4ccc5c(c4c[n+](C)c23)OCO5)c(-c2ccccc2)c1OC [Example 4]	< 16 µg/mL	
COc1ccc2c(c1OC)CN(C)c1c-2ccc2c(C3CC3)c(OC)c(OC)cc12 [Example 21]	< 16 µg/mL	
COc1cc2c(ccc3c4ccc(OC)c(OC)c4c[n+](C)c23)c(C2CC2)c1OC [Example 11]	< 16 µg/mL	
COc1cc2c(ccc3c4ccc(OC)c(OC)c4c[n+](C)c23)c(-c2ccoc2)c1OC [Example 17]	< 16 µg/mL	
COc1cc2c(ccc3c4ccc(OC)c(OC)c4c[n+](C)c23)c(-c2ccc(S(=O)(=O)N(C)C)cc2)c1OC [Example 18]	< 16 µg/mL	
COc1ccc2c(c1OC)CN(C)c1c-2ccc2c(-c3ccc(-c4ccccc4)cc3)c(OC)c(OC)cc12 [Example 20]	< 16 µg/mL	
COc1ccc2c(c[n+](C)c3c4cc5c(cc4ccc23)OCO5)c1OC [Chelerythrine]		MIC [1]: 8 µg/mL; MIC (MRSA; 24 h, read-out: MRSA MIC): 16 µg/mL; Maximal Light Scattering (Bacillus subtilis FtsZ [2]): 2.83 a.u.; Time to Reach Half-Maximal Light Scattering (Bacillus subtilis FtsZ [2]): 205.3 s; MIC (Enterococcus faecalis): 32 µg/mL; MIC (Staphylococcus aureus): 8 µg/mL; MIC (Bacillus subtilis): 4 µg/mL
COc1ccc(-c2c(OC)c(OC)cc3c2ccc2c4ccc5c(c4c[n+](C)c32)OCO5)cc1 [Example 6]	< 16 µg/mL	
COc1ccc2c(c1OC)C(OC)N(C)c1c-2ccc2c(-c3ccc(-c4ccccc4)cc3)c(OC)c(OC)cc12 (stereo not drawn) [Example 25]	< 16 µg/mL	
COc1cc2c(ccc3c4ccc(OC)c(OC)c4c[n+](C)c23)c(C2CCCCC2)c1OC [Example 10]	< 16 µg/mL	
COc1cc2c(-c3ccccc3)cc3c4ccc(OC)c(OC)c4c[n+](C)c3c2cc1OC [Example 14]	< 16 µg/mL	
C[n+]1cc2c3c(ccc2c2ccc4cc5c(cc4c21)OCO5)OCO3 [Sanguinarine]		MIC [1]: 8 µg/mL; MIC (MRSA; 24 h, read-out: MRSA MIC): 16 µg/mL; MIC (Enterococcus faecalis): 32 µg/mL; MIC (Staphylococcus aureus): 8 µg/mL; MIC (Bacillus subtilis): 4 µg/mL
COc1cc2c(ccc3c4ccc(OC)c(OC)c4c[n+](C)c23)c(-c2ccccc2)c1OC [Example 12]	< 16 µg/mL	
COc1cc2c(-c3ccc(-c4ccccc4)cc3)cc3c4ccc5c(c4c[n+](C)c3c2cc1OC)OCO5 [Example 13]	< 16 µg/mL	
COc1cc2c(ccc3c4ccc(OC)c(OC)c4c[n+](C)c23)c(-c2cccnc2)c1OC [Example 22]	< 16 µg/mL	
COc1cc2c(-c3ccc(-c4ccccc4)cc3)cc3c4ccc(OC)c(OC)c4c[n+](C)c3c2cc1OC [Example 23]	< 16 µg/mL	
COc1cc2c(ccc3c4ccc5c(c4c[n+](C)c23)OCO5)c(Cc2ccccc2)c1OC [Example 5]	< 16 µg/mL	
COc1cc2c(ccc3c4ccc(OC)c(OC(C)C)c4c[n+](C)c23)c(-c2ccccc2)c1OC [Example 8]	< 16 µg/mL	
COc1cc2ccc3c4ccc5c(c4c[n+](C)c3c2cc1OC)OCO5 [Comparative Example 1, reference compound]	32 µg/mL	
